Test results published in ChEMBL document CHEMBL3044730, “Synthesis, antimycobacterial, antiviral, antimicrobial activities, and QSAR studies of nicotinic acid benzylidene hydrazide derivatives” (Med Chem Res, 2012).
Values after ≈ are worked out from the molar mass of the structure shown.

How the values were obtained:
Human respirovirus 3 = assay: Antiviral activity against Human parainfluenza virus 3 infected Vero cells assessed as inhibition of virus-induced cytopathicity by microscopy; type: functional, organism-based; settings: Human respirovirus 3, Vero
Candida albicans [1] = assay: Antimicrobial activity against Candida albicans after 2 days by serial dilution method; type: functional; parameters: unit not given here
[2] = system: Mammalian orthoreovirus 1; assay: Antiviral activity against Mammalian orthoreovirus 1 infected Vero cells assessed as inhibition of virus-induced cytopathicity by microscopy; type: functional, organism-based; settings: Mammalian orthoreovirus 1, Vero
Coxsackievirus B4 [3] = assay: Antiviral activity against Human coxsackievirus B4 infected human HeLa cells assessed as inhibition of virus-induced cytopathicity by microscopy; type: functional, organism-based; settings: Enterovirus B
Escherichia coli = assay: Antimicrobial activity against Escherichia coli after 24 hr by serial dilution method; type: functional; parameters: unit not given here
[4] = system: Human immunodeficiency virus 1; assay: Antiviral activity against Human immunodeficiency virus 1 IIIB infected MT4 cells assessed as inhibition of virus-induced cytopathic effect after 4 days by MTT assay; type: functional, organism-based; settings: MT4, 96 h
Sindbis virus = assay: Antiviral activity against Sindbis virus infected Vero cells assessed as inhibition of virus-induced cytopathicity; type: functional, organism-based
Coxsackievirus B4 [5] = assay: Antiviral activity against Human coxsackievirus B4 infected Vero cells assessed as inhibition of virus-induced cytopathicity; type: functional, organism-based; settings: Enterovirus B
[6] = system: Human immunodeficiency virus 2; assay: Antiviral activity against Human immunodeficiency virus type 2 (ISOLATE ROD) infected MT4 cells assessed as inhibition of virus-induced cytopathic effect after 4 days by MTT assay; type: functional, organism-based; settings: Human immunodeficiency virus 2, ISOLATE ROD, MT4, 96 h
[7] = Cytotoxicity against Homo sapiens (human) MT4 cells after 4 days by MTT assay; type: cell-based
Vaccinia virus = assay: Antiviral activity against Vaccinia virus infected human HEL cells assessed as inhibition of virus-induced cytopathicity by microscopy; type: functional, organism-based; settings: Orthopoxvirus vaccinia
[8] = system: Human herpesvirus 3 strain Oka vaccine; assay: Antiviral activity against Human herpesvirus 3 strain Oka vaccine OKA 07-1 (Varicella zoster virus) infected in human HEL cells assessed as inhibition of virus-induced cytopathicity; type: functional, organism-based; settings: Human alphaherpesvirus 3, OKA 07-1, HEL
Human alphaherpesvirus 2 = assay: Antiviral activity against Human herpesvirus 2 strain G infected human HEL cells assessed as inhibition of virus-induced cytopathicity by microscopy; type: functional, organism-based; settings: Human alphaherpesvirus 2, strain G
[9] = Cytotoxicity against Homo sapiens (human) HEL cells assessed as alteration in cell morphology by microscopy; type: cell-based
Human alphaherpesvirus 1 [10] = assay: Antiviral activity against TK(-) aciclovir-resistant Human herpesvirus 1 strain KOS infected in human HEL cells assessed as inhibition of virus-induced cytopathicity; type: functional, organism-based; settings: Human alphaherpesvirus 1, KOS
[11] = system: Human herpesvirus 5 strain AD169; assay: Antiviral activity against Human herpesvirus 5 strain AD169 Davis infected human HEL cells assessed as inhibition of virus-induced cytopathicity by microscopy; type: functional, organism-based; settings: Human betaherpesvirus 5, Davis
[12] = system: Respiratory syncytial virus; assay: Antiviral activity against Respiratory syncytial virus infected human HeLa cells assessed as inhibition of virus-induced cytopathicity by microscopy; type: functional, organism-based
Human alphaherpesvirus 1 [13] = assay: Antiviral activity against Human herpesvirus 1 strain KOS infected in human HEL cells assessed as inhibition of virus-induced cytopathicity by microscopy by microscopy; type: functional, organism-based; settings: Human alphaherpesvirus 1, KOS
Bacillus subtilis = assay: Antimicrobial activity against Bacillus subtilis after 24 hr by serial dilution method; type: functional; parameters: unit not given here
[14] = Cytotoxicity against Chlorocebus aethiops (African green monkey) Vero cells assessed as alteration in cell morphology by microscopy; type: cell-based; settings: chlorocebus sabaeus
[15] = Cytotoxicity against Homo sapiens (human) HeLa cells assessed as alteration in cell morphology by microscopy; type: cell-based
Candida albicans [16] = assay: Antimicrobial activity against Candida albicans after 7 days by serial dilution method; type: functional; parameters: unit not given here
Punta Toro virus = assay: Antiviral activity against Punta Toro virus infected Vero cells assessed as inhibition of virus-induced cytopathicity; type: functional, organism-based
[17] = system: Mycobacterium tuberculosis; assay: Antimicrobial activity against Mycobacterium tuberculosis by agar dilution method; type: functional
Staphylococcus aureus = assay: Antimicrobial activity against Staphylococcus aureus after 24 hr by serial dilution method; type: functional; parameters: unit not given here
[18] = system: Vesicular stomatitis virus; assay: Antiviral activity against Vesicular stomatitis virus infected human HeLa cells assessed as inhibition of virus-induced cytopathicity by microscopy; type: functional, organism-based

O=C(N/N=C/c1ccc(O)cc1)c1cccnc1
EC50 (Human respirovirus 3): > 100 µg/mL
-logMIC (Candida albicans [1]): 1.28
EC50 [2]: > 100 µg/mL
EC50 (Coxsackievirus B4 [3]): > 100 µg/mL
-logMIC (Escherichia coli): 1.29
EC50 [4]: > 104 µg/mL
EC50 (Sindbis virus): > 100 µg/mL
EC50 (Coxsackievirus B4 [5]): > 100 µg/mL
EC50 [6]: > 104 µg/mL
CC50 at 96 h [7]: 104 µg/mL (≈ 431 µM)
EC50 (Vaccinia virus): > 100 µg/mL
EC50 [8]: 54 µg/mL (≈ 224 µM)
EC50 (Human alphaherpesvirus 2): > 100 µg/mL
CC50 [9]: 91 µg/mL (≈ 377 µM)
MCC [9]: > 100 µg/mL
EC50 (Human alphaherpesvirus 1 [10]): > 100 µg/mL
EC50 [11]: > 100 µg/mL
EC50 [12]: > 100 µg/mL
EC50 (Human alphaherpesvirus 1 [13]): > 100 µg/mL
-logMIC (Bacillus subtilis): 1.29
MCC [14]: > 100 µg/mL
MCC [15]: > 100 µg/mL
-logMIC (Candida albicans [16]): 1.59
EC50 (Punta Toro virus): > 100 µg/mL
MIC [17]: > 25 µg/mL
-logMIC (Staphylococcus aureus): 1.29
EC50 [18]: > 100 µg/mL

O=C(O)c1cn(C2CC2)c2cc(N3CCNCC3)c(F)cc2c1=O [CIPROFLOXACIN]
MIC [17]: 3.13 µg/mL (≈ 9.45 µM)

CC[C@@H](CO)NCCN[C@@H](CC)CO [ETHAMBUTOL]
MIC [17]: 1.56 µg/mL (≈ 7.64 µM)

OC(Cn1cncn1)(Cn1cncn1)c1ccc(F)cc1F [FLUCONAZOLE]
-logMIC (Candida albicans [1]): 2.64
-logMIC (Candida albicans [16]): 2.64

NNC(=O)c1ccncc1 [ISONIAZID]
MIC [17]: 0.1 µg/mL (≈ 0.729 µM)

Cc1ccnc2c1NC(=O)c1cccnc1N2C1CC1 [NEVIRAPINE]
EC50 [4]: 0.05 µg/mL (≈ 0.188 µM)
EC50 [6]: 4 µg/mL (≈ 15 µM)
CC50 at 96 h [7]: > 4 µg/mL

NNC(=O)c1cccnc1 [NICOTINIC ACID HYDRAZIDE]
-logMIC (Candida albicans [1]): 1.04
-logMIC (Escherichia coli): 0.74
-logMIC (Bacillus subtilis): 1.04
-logMIC (Candida albicans [16]): 1.04
-logMIC (Staphylococcus aureus): 0.74

CCn1cc(C(=O)O)c(=O)c2cc(F)c(N3CCNCC3)cc21 [NORFLOXACIN]
-logMIC (Escherichia coli): 2.61
-logMIC (Bacillus subtilis): 2.61
-logMIC (Staphylococcus aureus): 2.61

Cc1cn([C@H]2C[C@H](N=[N+]=[N-])[C@@H](CO)O2)c(=O)[nH]c1=O [ZIDOVUDINE]
EC50 [6]: 0.0009 µg/mL (≈ 0.00337 µM)
CC50 at 96 h [7]: > 2.5 µg/mL
